The source of these data is PubChem BioAssay AID1996.

Values after ≈ are worked out from the molar mass of the structure shown.

The conditions of this data set: buffer; pH 7.4; 200.0 µM.
For `Cc1ccc(S(C)(=O)=NC(=O)NC(=O)c2c(Cl)cccc2Cl)cc1` (stereo unspecified), the kinetic solubility (as a rule, solubility judged after dilution from a stock solution rather than from solid) amounted to 41.3 µg/mL (≈ 107 µM). `O=C(O)c1ccccc1C(=O)NCc1ccc2c(c1)OCO2` gave a solubility (kinetic) of 44.9 µg/mL (≈ 150 µM).

`CCOc1ccccc1NC(=O)NCc1ccc2c(c1)OCO2` gave a kinetic solubility of 0.8 µg/mL (≈ 2.55 µM). Then `CCn1cc(C2=NC(CCSC)CO2)c2ccccc21` (stereo unspecified), with 34 µg/mL (≈ 118 µM). As for `Cc1ccc(C(=O)OCC(=O)N2CCCCCC2)c(O)c1`, the solubility (kinetic) came out at 14 µg/mL (≈ 48.1 µM). Take `CN(C(=O)c1cc(-c2ccccc2)on1)C1CCCCC1`: the solubility (kinetic) turned out to be 9.7 µg/mL (≈ 34.1 µM).

Take `CCN1C(=O)/C(=C\N2CCN(C(=O)c3ccco3)CC2)SC1=S`: the kinetic solubility is 1.1 µg/mL (≈ 3.13 µM). For `O=C1OCc2nc3cc4c(cc3c(-c3ccc(F)cc3)c21)OCO4` the value was 1.2 µg/mL (≈ 3.71 µM); for `CC(C)NC(=O)c1ccc(CSCc2ccccc2Cl)o1`, more than 48.6 µg/mL. Regarding `CCN(CC)c1ccc(NC(=O)c2ccc3c(c2)OCO3)c(C)c1`, the solubility (kinetic) stood at 5.4 µg/mL (≈ 16.5 µM). For the compound `Nc1cc(Cl)ccc1C(=O)OCC(=O)N1CCCC1`, the kinetic solubility was 21.4 µg/mL (≈ 75.7 µM).

With `O=C(COc1ccc(Cl)cc1)NCc1ccc(F)cc1`, the kinetic solubility came out at 41.5 µg/mL (≈ 141 µM). Turning to `Cc1ccc(N(CCO)C(=S)Nc2ccccc2)cc1`, the solubility (kinetic) is more than 43 µg/mL. Then `COc1cccc(OC)c1C(=O)OCC(=O)N1CCC(Cc2ccccc2)CC1`, with 5.2 µg/mL (≈ 13.1 µM); and `CCOC(=O)c1cnc(-c2ccccc2)nc1N1CC(C)OC(C)C1` (stereo unspecified), with 32.1 µg/mL (≈ 94 µM). For `Cc1ccc(NC(=O)c2ccc3c(c2)OCCO3)cc1C` the value was 25.8 µg/mL (≈ 91.1 µM); for `Cc1ccc(/C(O)=C/c2nc3ccccc3oc2=O)cc1`, 22.5 µg/mL (≈ 80.6 µM). `CN(C)C(=O)C(CCN1CCC(O)(c2ccc(Cl)cc2)CC1)(c1ccccc1)c1ccccc1.Cl` displayed a solubility (kinetic) of more than 77 µg/mL.

`CC(=O)CN1C(=O)NC(c2ccccc2)(c2ccccc2)C1=O`: the kinetic solubility was found to be 33.9 µg/mL (≈ 110 µM). In turn, `CCOC(=O)C1=C(c2ccccc2)NC(=O)NC1c1cccc(OC)c1OC` (stereo unspecified) displayed a kinetic solubility of more than 57.4 µg/mL. `O=C(Nc1ccc2[nH]c(=O)[nH]c2c1)Nc1ccc(F)cc1F`: the solubility (kinetic) came out at 3.7 µg/mL (≈ 12.2 µM). For `CN1CCN(C(=O)CCC(=O)NCc2ccc(F)cc2)CC1` the value was 45.7 µg/mL (≈ 149 µM). For the compound `CCOc1ccc(/C=N/OCC(=O)Nc2ccc3c(c2)OCO3)cc1`, the solubility (kinetic) worked out at 5.2 µg/mL (≈ 15.2 µM).

On to `Cc1ccc(S(=O)(=O)CCSc2ccc(C(F)(F)F)cn2)cc1`, for which the solubility (kinetic) is less than 0.8 µg/mL. Turning to `CC(C)(C)C(=O)C1=C(O)C(=O)N(Cc2ccccc2)C1c1ccccc1Cl` (stereo unspecified), the solubility (kinetic) was more than 57.6 µg/mL. In turn, `COC(=O)c1cn(C(=O)c2cc(OC)cc(OC)c2)c2ccccc12` displayed a solubility (kinetic) of 3.4 µg/mL (≈ 10 µM). For `Cc1ccccc1CN1C(=O)c2ccccc2Sc2ccc(C(=O)O)cc21` the value was 51.1 µg/mL (≈ 136 µM); for `C=CCNC(=O)C(=O)NCC1CCCN1CC` (stereo unspecified), more than 35.9 µg/mL; for `COC(=O)c1ccc(NC(=O)c2cc[n+](Cc3ccccc3)cc2)cc1.[Cl-]`, 50.7 µg/mL. For `COc1cccc(CN(C)C(=O)c2cc(S(=O)(=O)NC3CCCCC3)ccc2C)c1`, the solubility (kinetic) was 45.3 µg/mL (≈ 105 µM).

As for `COc1ccc(NC(=O)c2ccco2)cn1`, the kinetic solubility was more than 32.7 µg/mL. For `O=C1Cc2ccccc2C(c2ccc(Cl)cc2Cl)N1` (stereo unspecified) the value was 3.1 µg/mL (≈ 10.6 µM); for `O=C(COc1ccc2ccccc2c1Br)N1CCCC1`, 45.4 µg/mL (≈ 136 µM). The compound `O=C(CNC(=O)c1cc(Cl)cc([N+](=O)[O-])c1)NC1CC1` had a solubility (kinetic) of more than 44.7 µg/mL. For `COC(=O)c1ccc(COC(=O)c2cccnc2Cl)cc1` the value was 37.8 µg/mL (≈ 124 µM); for `COc1cc(Cl)c(C)cc1NC(=O)CN(C)C1CCS(=O)(=O)C1` (stereo unspecified), more than 54.1 µg/mL; for `O=C(CN1C(=O)c2ccccc2S1(=O)=O)N1CCCCC1`, more than 46.3 µg/mL. `CN1CCC(N(C)C(=O)c2ccc(Cl)c(S(=O)(=O)N3CCc4ccccc43)c2)CC1` registered a solubility (kinetic) of more than 67.2 µg/mL.

Compound `CCC(CC)C(=O)N1CC(=O)Nc2ccc(F)cc2C1c1ccccc1` (stereo unspecified) registered a solubility (kinetic) of 51.9 µg/mL (≈ 146 µM). Then `O=C(Nc1ccc(Br)cc1)N1CCCCCC1`, with 7.6 µg/mL (≈ 25.6 µM); and `Cc1ccc[n+](CC(=O)Nc2ccc(N(C)C)cc2)c1.[Cl-]`, with more than 45.9 µg/mL; and `COc1ccc(/C=C/C(=O)NCc2ccccn2)cc1OC`, with more than 44.8 µg/mL. For `Cc1ccc(NC(=S)N(Cc2ccccc2)Cc2cccs2)c(C)c1` the value was 0.8 µg/mL (≈ 2.18 µM). Regarding `CN1CCCN(C(=O)c2cc3c(s2)CCCC3)CC1`, the solubility (kinetic) was 39.7 µg/mL (≈ 143 µM). Consider `Cc1ccc(C(=O)CSc2nnc3n2CCCCC3)s1`, for which the solubility (kinetic) is more than 46.1 µg/mL. Then `O=C(Nc1ccccc1)C1C2CCCCC21` (stereo unspecified), with 1.9 µg/mL (≈ 8.83 µM). In the case of `CCCCc1ccc(NC(=S)N2CCN(C)CC2)cc1`, the kinetic solubility was more than 43.7 µg/mL. For `O=C(CN1CCc2ccccc2C1)Nc1ccc(F)cc1` the value was 39.2 µg/mL (≈ 138 µM); for `N#Cc1ccsc1NC(=O)COC(=O)CCS(=O)(=O)c1ccccc1`, more than 56.8 µg/mL; for `COc1nc(-c2ccccc2)nc(C)c1CC(=O)O`, more than 38.7 µg/mL. In the case of `O=C(N1CCN(Cc2ccc3c(c2)OCO3)CC1)C(Cl)(Cl)Cl`, the kinetic solubility amounted to 37.6 µg/mL (≈ 103 µM). Regarding `Cc1nc(N)ncc1C(=O)Nc1ccccc1`, the kinetic solubility turned out to be 19 µg/mL (≈ 83.2 µM). Then `CCOc1cc(C(=O)NC)cc(Br)c1OCc1ccccc1`, with less than 0.8 µg/mL. Then `O=C(Nc1cccc(S(=O)(=O)N2CCCCC2)c1)c1cncc(Br)c1`, with 31.6 µg/mL (≈ 74.5 µM); and `C=CCNC(=S)N1CCN(S(=O)(=O)c2ccc(C)cc2)CC1`, with more than 50.9 µg/mL; and `O=C(Nc1ccc(C(=O)Nc2ccccc2Cl)cc1)c1cccnc1`, with 2.3 µg/mL (≈ 6.54 µM). For `Cc1cccc(-c2noc(CNS(=O)(=O)c3ccccc3)n2)c1` the value was more than 49.4 µg/mL; for `CCN1CCN(C(=O)NC2CCCCC2)CC1.O=C(O)C(=O)O`, more than 49.4 µg/mL. `CC(C)S(=O)(=O)c1csc(NC(=O)Nc2ccc(Cl)cc2)c1Cl` displayed a kinetic solubility of less than 0.4 µg/mL. Then `Cc1c([N+](=O)[O-])c2ccc(O)cc2n1-c1ccccc1`, with 1 µg/mL (≈ 3.73 µM); and `Cc1ccc(C(C)C)c(Oc2cnccn2)c1`, with 4.3 µg/mL (≈ 18.8 µM); and `COC(=O)c1sccc1NC(=O)CSCCc1ccncc1`, with 49.6 µg/mL (≈ 147 µM).

`COc1ccccc1NC(=O)c1cc(Cl)nc2ccccc12`: the kinetic solubility is 3.4 µg/mL (≈ 10.9 µM).

`COC(=O)c1ccc(NC(=O)c2cccc(NC(=O)c3ccco3)c2)cc1` registered a kinetic solubility of less than 0.4 µg/mL. `COc1ccc(S(=O)(=O)N2CCc3ccccc32)cc1C(=O)N1CCC(C)CC1` gave a solubility (kinetic) of 57.8 µg/mL (≈ 139 µM).

In turn, `CCCN(CC(=O)Nc1ccccc1OC)C(=O)C1CCCC1` had a kinetic solubility of more than 47.8 µg/mL.

Turning to `CCC(=O)Nc1cc(-c2nc3ncccc3o2)ccc1Cl`, the kinetic solubility was 13.8 µg/mL (≈ 45.7 µM). `N#Cc1cc([N+](=O)[O-])ccc1NCCc1ccccn1`: the kinetic solubility was more than 40.2 µg/mL. Take `CN(Cc1ccc(OC(F)F)cc1)C(=O)/C=C/c1ccc(S(=O)(=O)N2CCOCC2)cc1`: the kinetic solubility was 22.8 µg/mL (≈ 48.9 µM). Take `COc1cc(NS(=O)(=O)c2cn(C)cn2)cc(OC)c1`: the solubility (kinetic) amounted to 8.9 µg/mL (≈ 29.9 µM). Then `Cc1cc(F)ccc1NS(=O)(=O)c1cccc2nsnc12`, with 44.2 µg/mL (≈ 137 µM); and `O=C(NOCc1ccccc1)c1ccc(Cl)cc1Cl`, with 36.4 µg/mL (≈ 123 µM). For the compound `COc1ccc(CCNCc2ccc(C)s2)cc1OC.Cl`, the kinetic solubility is more than 49.2 µg/mL. Then `CC[C@H](C)[C@H](NC(N)=O)C(=O)Nc1ccc(NC(C)=O)cc1`, with more than 46 µg/mL.

In the case of `CC(=O)c1cccc(NC(=O)NCCc2c[nH]c3ccccc23)c1`, the kinetic solubility is 2.2 µg/mL (≈ 6.85 µM).

Turning to `Nc1nc(NCCCN2CCOCC2)nc(Nc2cccc(F)c2)c1[N+](=O)[O-]`, the solubility (kinetic) turned out to be 6.3 µg/mL (≈ 16.1 µM). As to `CCC1CCCCN1C(=O)CCS(=O)(=O)c1ccccc1` (stereo unspecified), the solubility (kinetic) is more than 46.4 µg/mL. For `Cl.ClCCN1CCN(c2ccnc3cc(Cl)ccc23)CC1` the value was more than 57.5 µg/mL; for `CC(C)(C)NC(=O)NC(=O)CSc1ncccn1`, more than 40.2 µg/mL; for `Cc1cc[n+](-c2ccccc2)c2ccccc12.[Cl-]`, 17.3 µg/mL. With `Cc1ccc(Sc2ncccc2[N+](=O)[O-])cc1`, the solubility (kinetic) was determined as 2.8 µg/mL (≈ 11.4 µM).

Take `CC1CCN(c2ccc(C(F)(F)F)cc2N)CC1`: the solubility (kinetic) was less than 0.3 µg/mL. Then `CN(C)c1ccc(C(=O)N2CCN(C(=O)C3CCCO3)CC2)cc1` (stereo unspecified), with more than 49.7 µg/mL; and `COc1ccc2nc(S(=O)Cc3ncc(C)c(OC)c3C)[nH]c2c1` (stereo unspecified), with 35.4 µg/mL (≈ 102 µM); and `Cc1ccc(C(=O)N2CCN(c3ccccn3)CC2)cc1[N+](=O)[O-]`, with 44.8 µg/mL (≈ 137 µM). Then `CC(C)(C)OC(=O)N1CCCN(C(=O)Nc2ccc(C(F)(F)F)cc2)CC1`, with 53.8 µg/mL (≈ 139 µM); and `NC(=O)NC(=O)COC(=O)c1cccnc1Nc1ccccc1F`, with 4.6 µg/mL (≈ 13.8 µM); and `O=C(COC(=O)c1cccc(O)c1)Nc1ccc(OC(F)F)cc1`, with 46.2 µg/mL (≈ 137 µM). Then `CC1CN(c2ccc([N+](=O)[O-])cc2Cl)CCN1S(C)(=O)=O` (stereo unspecified), with more than 50.1 µg/mL; and `Cc1c(C)c2ccc(OCC(=O)N3CCN(Cc4ccccc4)CC3)cc2oc1=O.Cl`, with 2.5 µg/mL; and `CCOC(=O)CC(=O)CSc1nccc(-c2cccnc2)n1`, with more than 47.6 µg/mL. The compound `O=C(c1ccc(Cl)c(S(=O)(=O)N2CCOCC2)c1)N1CCc2ccccc2C1` registered a kinetic solubility of more than 63.1 µg/mL. The compound `Cc1ccc(C(=O)Nc2ccccc2C(=O)Nc2ccccn2)cc1Cl` had a solubility (kinetic) of less than 0.3 µg/mL. Then `N#Cc1ccccc1COc1cccc2c1CCCC2O` (stereo unspecified), with 2.1 µg/mL (≈ 7.52 µM); and `O=C(NC(=O)c1ccccc1)Nc1ccc(Cl)cn1`, with less than 0.2 µg/mL; and `O=C1Nc2ccc(S(=O)(=O)NCCCO)c3cccc1c23`, with more than 46 µg/mL. Then `COC(=O)c1sccc1NC(=O)c1ccc(C(C)C)cc1`, with less than 0.6 µg/mL.

Consider `CCOC(=O)c1c(C)nc(C)c(C(=O)OCC)c1-c1cccc(N)c1`, for which the kinetic solubility is 42.1 µg/mL (≈ 123 µM). Then `Cc1ccsc1C1C(C#N)=C(N)OC2=C1C(=O)CC(C)C2` (stereo unspecified), with 38.7 µg/mL (≈ 129 µM); and `Cc1ccc(-c2nc3ccccc3c(=O)n2-c2cccc(C)n2)cc1`, with more than 49.1 µg/mL. As for `O=C(OCc1cccc([N+](=O)[O-])c1)c1cc(=O)[nH]c2ccccc12`, the solubility (kinetic) was less than 0.3 µg/mL.
